Reference: article PMC10238656 (Cancer discovery, 2023)
Several values for one entry are separate records, joined by “and”; a condition that tells them apart may be missing. Equal values may be shown once. Read-outs that look alike come from different tables or passages of the source.

Experiments:
[1] = target: full-length recombinant KDM5A (Homo sapiens, UniProt P29375); test: KDM5A enzyme kinetic assay; type: biochemical
[2] = target: full-length recombinant KDM5C (Homo sapiens, UniProt P41229); test: KDM5C enzyme kinetic assay; type: biochemical
Sequence of full-length recombinant KDM5C (P41229 whole entry): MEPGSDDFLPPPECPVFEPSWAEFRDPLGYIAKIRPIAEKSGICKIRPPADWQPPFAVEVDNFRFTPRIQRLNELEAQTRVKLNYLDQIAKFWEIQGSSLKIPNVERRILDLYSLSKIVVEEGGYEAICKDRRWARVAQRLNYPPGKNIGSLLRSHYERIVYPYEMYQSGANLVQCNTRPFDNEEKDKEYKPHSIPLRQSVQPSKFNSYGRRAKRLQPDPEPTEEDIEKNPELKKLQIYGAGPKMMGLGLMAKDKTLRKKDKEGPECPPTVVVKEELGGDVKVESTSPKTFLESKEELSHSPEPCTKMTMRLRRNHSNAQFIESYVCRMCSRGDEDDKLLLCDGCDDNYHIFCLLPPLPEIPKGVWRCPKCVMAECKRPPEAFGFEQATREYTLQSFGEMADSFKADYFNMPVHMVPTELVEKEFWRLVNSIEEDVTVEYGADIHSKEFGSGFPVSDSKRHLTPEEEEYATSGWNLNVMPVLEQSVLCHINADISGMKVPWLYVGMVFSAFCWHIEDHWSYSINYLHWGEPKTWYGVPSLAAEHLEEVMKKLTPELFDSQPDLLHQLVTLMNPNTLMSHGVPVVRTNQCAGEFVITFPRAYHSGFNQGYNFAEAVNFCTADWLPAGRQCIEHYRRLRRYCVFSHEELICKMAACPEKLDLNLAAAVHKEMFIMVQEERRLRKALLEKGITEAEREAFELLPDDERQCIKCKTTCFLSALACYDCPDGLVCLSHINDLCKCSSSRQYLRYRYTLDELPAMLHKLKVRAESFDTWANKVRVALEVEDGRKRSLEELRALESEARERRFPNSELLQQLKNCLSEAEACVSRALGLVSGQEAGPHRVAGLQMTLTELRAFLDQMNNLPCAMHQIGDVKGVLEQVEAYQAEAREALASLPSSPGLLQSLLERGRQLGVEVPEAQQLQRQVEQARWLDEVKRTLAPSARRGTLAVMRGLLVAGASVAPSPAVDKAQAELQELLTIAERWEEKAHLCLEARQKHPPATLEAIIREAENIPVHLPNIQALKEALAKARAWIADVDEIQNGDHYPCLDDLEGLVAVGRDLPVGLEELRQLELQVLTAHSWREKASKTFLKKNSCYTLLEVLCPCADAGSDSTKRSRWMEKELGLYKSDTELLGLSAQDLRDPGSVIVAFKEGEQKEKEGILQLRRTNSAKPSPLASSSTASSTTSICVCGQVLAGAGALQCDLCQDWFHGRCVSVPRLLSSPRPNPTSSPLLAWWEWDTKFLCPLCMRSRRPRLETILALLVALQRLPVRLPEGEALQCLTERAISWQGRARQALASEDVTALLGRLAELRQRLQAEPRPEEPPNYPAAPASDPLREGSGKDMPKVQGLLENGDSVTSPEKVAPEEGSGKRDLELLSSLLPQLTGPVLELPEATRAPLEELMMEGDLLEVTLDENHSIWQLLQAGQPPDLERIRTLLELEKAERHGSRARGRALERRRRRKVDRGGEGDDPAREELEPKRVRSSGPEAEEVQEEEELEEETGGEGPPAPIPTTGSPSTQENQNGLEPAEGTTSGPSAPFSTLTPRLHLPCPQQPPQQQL

[3] = target: full-length recombinant KDM5D (Homo sapiens, UniProt Q9BY66)
Sequence of full-length recombinant KDM5D (Q9BY66 whole entry): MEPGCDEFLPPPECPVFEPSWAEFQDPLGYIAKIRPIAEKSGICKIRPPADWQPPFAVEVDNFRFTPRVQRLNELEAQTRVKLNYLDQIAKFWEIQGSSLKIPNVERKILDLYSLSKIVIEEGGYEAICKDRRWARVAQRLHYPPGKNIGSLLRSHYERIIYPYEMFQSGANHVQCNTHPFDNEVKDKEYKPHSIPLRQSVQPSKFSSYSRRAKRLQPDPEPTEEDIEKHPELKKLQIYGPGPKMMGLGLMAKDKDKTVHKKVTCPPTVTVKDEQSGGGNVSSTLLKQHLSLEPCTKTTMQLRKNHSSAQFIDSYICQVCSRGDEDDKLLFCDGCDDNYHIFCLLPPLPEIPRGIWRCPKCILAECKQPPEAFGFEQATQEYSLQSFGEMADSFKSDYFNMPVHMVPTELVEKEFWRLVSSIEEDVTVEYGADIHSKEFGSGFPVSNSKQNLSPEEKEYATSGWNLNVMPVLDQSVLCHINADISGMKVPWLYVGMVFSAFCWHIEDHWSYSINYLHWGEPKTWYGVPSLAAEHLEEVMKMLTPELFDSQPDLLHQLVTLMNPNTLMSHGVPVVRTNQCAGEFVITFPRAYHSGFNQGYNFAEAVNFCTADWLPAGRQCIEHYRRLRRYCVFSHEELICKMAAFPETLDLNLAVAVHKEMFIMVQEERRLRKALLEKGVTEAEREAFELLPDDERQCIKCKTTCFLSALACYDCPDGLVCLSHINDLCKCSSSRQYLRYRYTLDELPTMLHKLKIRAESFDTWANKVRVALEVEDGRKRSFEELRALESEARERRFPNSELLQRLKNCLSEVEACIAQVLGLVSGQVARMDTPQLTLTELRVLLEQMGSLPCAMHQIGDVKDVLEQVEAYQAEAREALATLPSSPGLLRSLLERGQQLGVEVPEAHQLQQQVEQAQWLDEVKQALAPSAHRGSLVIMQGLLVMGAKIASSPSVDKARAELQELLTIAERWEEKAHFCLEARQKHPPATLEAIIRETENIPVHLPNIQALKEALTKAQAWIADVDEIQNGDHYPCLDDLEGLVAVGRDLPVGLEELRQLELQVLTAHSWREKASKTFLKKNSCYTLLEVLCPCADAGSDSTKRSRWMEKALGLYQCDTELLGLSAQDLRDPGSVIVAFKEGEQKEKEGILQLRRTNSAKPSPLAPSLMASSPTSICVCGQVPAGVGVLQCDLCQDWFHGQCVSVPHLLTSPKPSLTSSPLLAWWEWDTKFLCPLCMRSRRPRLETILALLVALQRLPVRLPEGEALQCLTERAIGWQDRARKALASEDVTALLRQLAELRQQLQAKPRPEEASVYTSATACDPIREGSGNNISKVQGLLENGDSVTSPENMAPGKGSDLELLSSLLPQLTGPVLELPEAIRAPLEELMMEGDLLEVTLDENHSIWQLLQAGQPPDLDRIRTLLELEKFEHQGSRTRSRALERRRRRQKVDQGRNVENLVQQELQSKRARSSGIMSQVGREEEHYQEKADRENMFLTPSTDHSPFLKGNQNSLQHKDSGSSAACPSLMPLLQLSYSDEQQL

KDM5B = conditions: cited from earlier work
TET2 = conditions: cited from earlier work
KDM5A^F68L = KDM5A^F68L (Homo sapiens, UniProt P29375, F68L); type: biochemical
Sequence of KDM5A^F68L (P29375 whole entry F68L): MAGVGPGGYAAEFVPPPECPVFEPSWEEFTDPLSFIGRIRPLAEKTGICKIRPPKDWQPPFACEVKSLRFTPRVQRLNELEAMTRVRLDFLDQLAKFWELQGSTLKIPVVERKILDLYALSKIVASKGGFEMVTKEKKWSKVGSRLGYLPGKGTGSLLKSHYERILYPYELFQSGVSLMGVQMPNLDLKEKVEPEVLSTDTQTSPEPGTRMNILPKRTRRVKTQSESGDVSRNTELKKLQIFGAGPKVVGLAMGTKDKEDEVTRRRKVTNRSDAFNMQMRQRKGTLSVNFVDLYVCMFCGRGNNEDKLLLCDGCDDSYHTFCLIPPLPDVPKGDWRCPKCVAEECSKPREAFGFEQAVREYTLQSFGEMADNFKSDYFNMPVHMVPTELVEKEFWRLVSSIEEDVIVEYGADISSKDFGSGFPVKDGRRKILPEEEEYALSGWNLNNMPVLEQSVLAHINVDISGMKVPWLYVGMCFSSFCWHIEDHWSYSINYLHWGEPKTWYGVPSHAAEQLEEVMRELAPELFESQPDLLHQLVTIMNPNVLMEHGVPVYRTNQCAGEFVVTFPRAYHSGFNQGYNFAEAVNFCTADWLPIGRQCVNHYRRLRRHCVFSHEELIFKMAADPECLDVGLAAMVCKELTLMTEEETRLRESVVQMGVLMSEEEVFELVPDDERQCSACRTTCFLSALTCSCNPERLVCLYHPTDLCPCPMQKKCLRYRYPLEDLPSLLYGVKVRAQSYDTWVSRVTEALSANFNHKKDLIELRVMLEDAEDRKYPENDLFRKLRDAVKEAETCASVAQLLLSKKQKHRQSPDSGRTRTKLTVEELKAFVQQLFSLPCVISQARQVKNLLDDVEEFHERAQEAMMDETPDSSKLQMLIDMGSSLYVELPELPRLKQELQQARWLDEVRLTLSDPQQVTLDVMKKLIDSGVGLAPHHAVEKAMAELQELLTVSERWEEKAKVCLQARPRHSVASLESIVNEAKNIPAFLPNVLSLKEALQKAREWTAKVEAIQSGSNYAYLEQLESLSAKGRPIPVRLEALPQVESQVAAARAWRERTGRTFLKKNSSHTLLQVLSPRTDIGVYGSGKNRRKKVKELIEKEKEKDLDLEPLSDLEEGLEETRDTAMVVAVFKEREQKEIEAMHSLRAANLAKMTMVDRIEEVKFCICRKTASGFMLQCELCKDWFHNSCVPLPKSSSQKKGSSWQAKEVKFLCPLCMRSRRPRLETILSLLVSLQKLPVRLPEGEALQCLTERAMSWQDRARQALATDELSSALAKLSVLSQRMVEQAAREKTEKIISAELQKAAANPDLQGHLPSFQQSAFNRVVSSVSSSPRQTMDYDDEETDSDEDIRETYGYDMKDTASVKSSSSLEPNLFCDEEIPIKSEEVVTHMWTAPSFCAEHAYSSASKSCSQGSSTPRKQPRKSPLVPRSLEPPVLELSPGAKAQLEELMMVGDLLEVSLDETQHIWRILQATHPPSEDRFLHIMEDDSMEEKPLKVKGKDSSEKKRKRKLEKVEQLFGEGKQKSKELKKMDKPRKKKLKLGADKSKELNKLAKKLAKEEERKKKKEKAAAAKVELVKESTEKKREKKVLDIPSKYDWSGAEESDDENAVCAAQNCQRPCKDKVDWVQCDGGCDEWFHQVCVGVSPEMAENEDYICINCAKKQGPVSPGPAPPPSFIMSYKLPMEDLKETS

KDM5A^R429I = KDM5A^R429I (Homo sapiens, UniProt P29375, R429I); type: biochemical
Sequence of KDM5A^R429I (P29375 whole entry R429I): as the sequence (P29375 whole entry F68L) above, with L68F, R429I counted along it

[4] = test system: global 5hmC levels in TF-1 cells; test: Total 5hmC content by LC-MS; type: cell-based, human; conditions: 21 days in the presence of KDM5c70, day 0 of cytokine withdrawal
TF-1 cells = test: TF-1 cytokine-withdrawal assay; type: cell-based, human; conditions: parental TF-1 cells passaged 21 days in the presence of KDM5c70
[5] = test system: global H3K4 trimethylation in TF-1 cells; test: Immunoblot analysis of global trimethyl-H3K4; type: cell-based, human; conditions: 50 nM KDM5c70, 21 days, vs DMSO-treated TF-1 cells
[6] = test system: trimethyl-H3K4 at sites differentially marked in TF1-IDH1^R132H cells, TF-1 cells; test: Trimethyl-H3K4 ChIP-seq; type: cell-based, human; conditions: KDM5c70-treated TF-1 cells vs DMSO
IHA cells = test: Soft agar colony-forming assay; type: cell-based, human; conditions: 50 nM KDM5c70, IHA cells passaged 7 times in the presence of KDM5c70
TF1-IDH1^R132H cells [7] = test: Proliferation under cytokine-rich conditions; type: cell-based, human; conditions: doses up to 100 nM, cytokine-rich media
control TF-1 cells = test: Proliferation under cytokine-rich conditions; type: cell-based, human; conditions: doses up to 100 nM, cytokine-rich media
TF1-IDH1^R132H cells [8] = test: Cytokine-withdrawal assay of mutant IDH-transformed TF-1 cells; type: cell-based, human
TF1-shTET2 cells = test: Cytokine-withdrawal assay of TET2-knockdown TF-1 cells; type: cell-based, human; conditions: pre-treatment for two weeks prior to cytokine withdrawal
[9] = read-out: 2OG Km, mean ± SD of 3 to 7 assays, 50 mM Tris-HCl pH 7.5, 37 °C
[10] = read-out: (R)-2HG IC50, fourfold 2OG concentration relative to 2OG Km
[11] = read-out: (S)-2HG IC50, fourfold 2OG concentration relative to 2OG Km

Sequence of full-length recombinant KDM5A (P29375 whole entry): as the sequence (P29375 whole entry F68L) above, with L68F counted along it

SMILES: O=C(O)CCC(=O)C(=O)O [2OG, 2-oxoglutarate]
- Km ([1]; read-out: 2OG Km, mean ± SD of 3 to 7 assays, 50 mM MES pH 6.5, 37 °C): 4.5 ± 0.3 µM
- Km [2, 9]: 2.7 ± 0.4 µM
- Km [3, 9]: 4.3 ± 1.5 µM
- Km (KDM5B; read-out: 2OG Km): 10 ± 2 µM
- Km (TET2; read-out: 2OG Km): 55 ± 20 µM

SMILES: O=C(O)CC[C@@H](O)C(=O)O [(R)-2HG, (R)-2-hydroxyglutarate]
- IC50 [1, 10]: 930 ± 200 µM
- IC50 [2, 10]: 670 ± 100 µM
- sensitivity to inhibition by (R)-2HG compared with wild-type KDM5A (KDM5A^F68L): similarly sensitive to inhibition by (R)-2HG
- sensitivity to inhibition by (R)-2HG compared with wild-type KDM5A (KDM5A^R429I): similarly sensitive to inhibition by (R)-2HG
- IC50 [3, 10]: 800 ± 190 µM
- IC50 (TET2; read-out: (R)-2HG IC50): ~5000 µM and 5000 µM

SMILES: O=C(O)CC[C@H](O)C(=O)O [(S)-2HG]
- inhibition of KDM5A (in words) [1]: potently inhibited
- IC50 [1, 11]: 150 ± 100 µM
- inhibition of KDM5C (in words) [2]: potently inhibited
- IC50 [2, 11]: 200 ± 10 µM
- inhibition of KDM5D (in words) [3]: potently inhibited
- IC50 [3, 11]: 310 ± 30 µM
- IC50 (TET2; read-out: (S)-2HG IC50): 1600 µM

SMILES: CCOC(=O)c1ccnc(CNCC(=O)N(CC)CCN(C)C)c1 [KDM5c70]
- effect on global 5hmC levels [4]: neither KDM5A/C/D triple knockout nor treatment with KDM5c70 had a significant effect
- induction of TF-1 cytokine independence (TF-1 cells): sufficient to induce TF-1 cytokine independence
- effect on global trimethyl-H3K4 levels (western blot) [5]: increased global levels of trimethyl-H3K4
- trimethyl-H3K4 ChIP-seq signal at sites enriched in TF1-IDH1^R132H cells [6]: trimethyl-H3K4-rich regions were enriched
- soft agar colony formation (IHA cells): sufficient to induce soft agar colony formation

SMILES: CC(C)N(C(=O)c1cc(F)ccc1Oc1cncnc1N1CC2(CCN(CC3CCC(NS(C)(=O)=O)CC3)CC2)C1)C(C)C (centres unmarked) [VTP50469]
- effect on cytokine-dependent proliferation (TF1-IDH1^R132H cells [7]): no effect
- effect on cytokine-dependent proliferation (control TF-1 cells): no effect
- effect on cytokine independence (TF1-IDH1^R132H cells [8]; pre-treatment for two weeks prior to cytokine withdrawal): did inhibit TF1-IDH1^R132H cytokine independence in a dose-dependent manner
- effect on cytokine independence (TF1-IDH1^R132H cells [8]; treatment started on day 0 of cytokine withdrawal): no effect
- effect on cytokine independent proliferation (TF1-shTET2 cells): inhibited the cytokine independent proliferation of TF1-shTET2 cells to a similar extent as TF1-IDH1^R132H cells
